Results on 22 compounds are retold here after BindingDB's records for patent US11440923 (2022).

T1 sequence (Q07820 whole entry K194A/K197A/R201A, looked up): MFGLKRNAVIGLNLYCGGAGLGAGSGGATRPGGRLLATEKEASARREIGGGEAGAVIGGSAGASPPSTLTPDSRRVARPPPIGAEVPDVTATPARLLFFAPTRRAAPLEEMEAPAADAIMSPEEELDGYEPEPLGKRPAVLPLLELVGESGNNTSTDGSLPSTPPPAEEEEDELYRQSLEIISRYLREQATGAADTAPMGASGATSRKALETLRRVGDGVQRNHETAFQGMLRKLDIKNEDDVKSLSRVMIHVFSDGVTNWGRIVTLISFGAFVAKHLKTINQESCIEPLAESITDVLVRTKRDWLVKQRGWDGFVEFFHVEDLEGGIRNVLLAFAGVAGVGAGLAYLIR

This test addresses T1, Induced myeloid leukemia cell differentiation protein Mcl-1 [K194A,K197A,R201A] (Homo sapiens, UniProt Q07820, K194A/K197A/R201A).
T1 construct: gene MCL1
Put plainly: Protein-Protein Interaction Assay: MCL-1/Noxa BH3 Peptide (MCL-1 Assay).
Protocol: The dose-dependent inhibition by the compounds described in this invention of the interaction between MCL-1 and the BH3 domain of Noxa (both human) was determined using a steady state binding competition assay with time-resolved fluorescence energy transfer (TR-FRET) readout. […] The MBP-MCL-1 was purchased from Beryllium (Bedford, Mass., USA). […] The Noxa BH3-derived peptide can be obtained from e.g. Biosyntan (Berlin, Germany).
As a reminder, the IC50 is the concentration at which inhibition is half-maximal. Lower therefore signals greater potency in that assay. `CCc1c2c(nn1C)C(CCC1CCOCC1)OCCCCn1c(C(=O)O)c(CCCOc3cccc4cc(F)ccc34)c3ccc(Cl)c-2c31` (racemic) [US11440923, Example 60] came in with a 50% inhibitory concentration (IC50) of 0.69 nM.

The compound `CCc1c2c(nn1C)C1CCCCN1CCCCn1c(C(=O)O)c(CCCOc3cccc4ccccc34)c3ccc(Cl)c-2c31` (racemic) [US11440923, Example 102] returned a 50% inhibitory concentration (IC50) of 0.94 nM.

Take `CCc1c2c(nn1C)C(CCN1CCOCC1)OCCCCn1c(C(=O)O)c(CCCOc3cccc4cc(F)ccc34)c3ccc(Cl)c-2c31` (single isomer, unassigned) [US11440923, Example 23]: the IC50 is 0.63 nM.

With `CCc1c2c(nn1C)C(CCC1CCOCC1)OCCCCn1c(C(=O)O)c(CCCOc3cccc4cc(F)ccc34)c3ccc(Cl)c-2c31` (single isomer, unassigned) [US11440923, Example 63], the 50% inhibitory concentration (IC50) came to 0.88 nM.

Compound `CCc1c2c(nn1C)C(CCN1CC(F)(F)C1)OCCCCn1c(C(=O)O)c(CCCOc3cccc4cc(F)ccc34)c3ccc(Cl)c-2c31` (single isomer, unassigned) [US11440923, Example 78] yielded an IC50 of 0.42 nM.

Turning to `CCC1OCCCCn2c(C(=O)O)c(CCCOc3cccc4ccccc34)c3ccc(Cl)c(c32)-c2c1nn(C)c2C` (single isomer, unassigned; form 1) [US11440923, Example 29], the IC50 is 1 nM.

The compound `CCc1c2c(nn1C)C(C(F)(F)F)OCCCCn1c(C(=O)O)c(CCCOc3cccc4ccccc34)c3ccc(Cl)c-2c31` (single isomer, unassigned; form 1) [US11440923, Example 33] displayed an IC50 of 2.1 nM.

Compound `Cc1c2c(nn1C)C(C1CC1)OCCCCn1c(C(=O)O)c(CCCOc3cccc4ccccc34)c3ccc(Cl)c-2c31` (single isomer, unassigned; form 1) [US11440923, Example 35] returned a half-maximal inhibitory concentration (IC50) of 0.73 nM.

Turning to `CCc1c2c(nn1C)C(C1CC1)OCCCCn1c(C(=O)O)c(CCCOc3cccc4cc(F)ccc34)c3ccc(Cl)c-2c31` (single isomer, unassigned; form 1) [US11440923, Example 39], the IC50 was found to be 0.72 nM.

Turning to `CCc1c2c(nn1C)C(CCOC)OCCCCn1c(C(=O)O)c(CCCOc3cccc4cc(F)ccc34)c3ccc(Cl)c-2c31` (single isomer, unassigned; form 1) [US11440923, Example 42], the IC50 is 0.33 nM.

Consider `CCc1c2c(nn1C)C(CC(C)(C)O)OCCCCn1c(C(=O)O)c(CCCOc3cccc4cc(F)ccc34)c3ccc(Cl)c-2c31` (single isomer, unassigned; form 1) [US11440923, Example 53], for which the IC50 came out at 0.41 nM.

`CCc1c2c(nn1C)C(CCC(C)(C)O)OCCCCn1c(C(=O)O)c(CCCOc3cccc4cc(F)ccc34)c3ccc(Cl)c-2c31` (single isomer, unassigned; form 1) [US11440923, Example 75] gave an IC50 of 0.37 nM.

`CCC1OCCCCn2c(C(=O)O)c(CCCOc3cccc4ccccc34)c3ccc(Cl)c(c32)-c2c1nn(C)c2C` (single isomer, unassigned; form 2) [US11440923, Example 30] came in with an IC50 of 200 nM.

The compound `CCc1c2c(nn1C)C(C(F)(F)F)OCCCCn1c(C(=O)O)c(CCCOc3cccc4ccccc34)c3ccc(Cl)c-2c31` (single isomer, unassigned; form 2) [US11440923, Example 34] came in with a concentration for half-maximal inhibition (IC50) of 370 nM.

`Cc1c2c(nn1C)C(C1CC1)OCCCCn1c(C(=O)O)c(CCCOc3cccc4ccccc34)c3ccc(Cl)c-2c31` (single isomer, unassigned; form 2) [US11440923, Example 36] yielded a 50% inhibitory concentration (IC50) of 280 nM.

As to `CCc1c2c(nn1C)C(C1CC1)OCCCCn1c(C(=O)O)c(CCCOc3cccc4cc(F)ccc34)c3ccc(Cl)c-2c31` (single isomer, unassigned; form 2) [US11440923, Example 40], the IC50 turned out to be 48 nM.

The compound `CCc1c2c(nn1C)C(CCOC)OCCCCn1c(C(=O)O)c(CCCOc3cccc4cc(F)ccc34)c3ccc(Cl)c-2c31` (single isomer, unassigned; form 2) [US11440923, Example 43] gave a 50% inhibitory concentration (IC50) of 88 nM.

The compound `CCc1c2c(nn1C)C(CC(C)(C)O)OCCCCn1c(C(=O)O)c(CCCOc3cccc4cc(F)ccc34)c3ccc(Cl)c-2c31` (single isomer, unassigned; form 2) [US11440923, Example 54] showed an IC50 of 47 nM.

Turning to `CCc1c2c(nn1C)C(CCC(C)(C)O)OCCCCn1c(C(=O)O)c(CCCOc3cccc4cc(F)ccc34)c3ccc(Cl)c-2c31` (single isomer, unassigned; form 2) [US11440923, Example 76], the IC50 was found to be 90 nM.

`Cc1c2c(nn1C)C(CCN1CCOCC1)OCCCCn1c(C(=O)O)c(CCCOc3cccc4cc(F)ccc34)c3ccc(Cl)c-2c31` (configuration not stated) [US11440923, Example 16]: half-maximal inhibition (IC50) was put at 1.2 nM.

`Cc1c2c(nn1C)C(CCN1CCOCC1)OCCCCn1c(C(=O)O)c(CCCOc3cccc4cc(F)ccc34)c3ccc(F)c-2c31` (configuration not stated) [US11440923, Example 19] gave a half-maximal inhibitory concentration (IC50) of 0.79 nM.

`CCc1c2c(nn1C)[C@@H](CCN1CCOCC1)OCCCCn1c(C(=O)O)c(CCCOc3cccc4cc(F)ccc34)c3ccc(Cl)c-2c31` [US11440923, Example 48] showed an IC50 of 3.6 nM.
